Experimental data: patent publication US12344649B2, “Modulators of parathyroid hormone receptor (PTHR1)” (Flagship Pioneering Innovations VI, LLC, priority 2019, dated 2025)
pEC50: −log10 of the molar value. Several values for one entry are separate records, joined by “and”; a condition that tells them apart may be missing. Identical values can stand only once. Where no end group is shown, it is not given here.

Key:
Format in all cases: cell-based
PTHR1 [1] = molecular target: T1, PTHR1 (Homo sapiens, UniProt Q03431); experiment: cAMP accumulation assay (HTRF) in CHO-K1/Ga15/PTHR1 cells; design: host or cells: CHO-K1 (recombinant line CHO-K1/Ga15/PTHR1); settings: for cAMP accumulation activity compared to control peptide: FIG. 3, PTH 1-34 positive control; for EC50: read-out: −log10EC50 (converted); for cAMP: relative to PTH [1-34], CHO-K1/Ga15/PTHR1 cells; for Emax: CHO-K1, cAMP assay, fitted dose-response maximum
T1 sequence (Q03431 27-593): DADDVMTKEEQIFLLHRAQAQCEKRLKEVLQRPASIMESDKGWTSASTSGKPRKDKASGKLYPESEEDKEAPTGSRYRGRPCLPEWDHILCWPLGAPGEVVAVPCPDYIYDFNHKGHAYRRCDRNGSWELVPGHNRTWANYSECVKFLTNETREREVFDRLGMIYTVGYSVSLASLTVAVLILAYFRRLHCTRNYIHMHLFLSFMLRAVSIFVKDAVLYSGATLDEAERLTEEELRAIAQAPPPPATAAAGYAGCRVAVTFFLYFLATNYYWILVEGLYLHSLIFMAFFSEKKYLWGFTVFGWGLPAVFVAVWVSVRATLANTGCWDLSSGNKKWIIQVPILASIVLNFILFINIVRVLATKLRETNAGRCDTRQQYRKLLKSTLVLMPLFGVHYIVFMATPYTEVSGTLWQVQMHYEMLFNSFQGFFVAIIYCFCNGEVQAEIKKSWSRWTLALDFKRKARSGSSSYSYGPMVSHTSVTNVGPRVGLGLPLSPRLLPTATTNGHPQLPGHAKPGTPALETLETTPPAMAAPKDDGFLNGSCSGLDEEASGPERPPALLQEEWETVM
Method: Cell suspension (5 μL) was seeded in 384-well plates at a density of 3,000 cells/well. Cells were treated with test samples (5 μL) or agonist (PTH 1-34) for 30 minutes at room temperature. cAMP-d2 working solution (5 μL) and anti-cAMP-Cryptate working solution (5 μL) were added to cells and incubated for 60 minutes at room temperature. The signal of the assay plate was read with PheraStar (BMG LABTECH, NC), an HTRF compatible reader.

PTHR1 [2] = molecular target: T1, PTHR1; experiment: β-arrestin1 recruitment BRET assay in transfected HEK293T cells; design: Flag (N); Life Technologies Corporation, CA (arrestin cDNA); host or cells: HEK293T (CRL-3216, ATCC); settings: for −log10Slope / EC50: β-arrestin1 recruitment; for −log10Slope: fitted curve slope; for EC50: read-out: −log10EC50 (converted); for β1-arrestin: relative to PTH [1-34], HEK293T cells, BRET
Method: (§1) 18-24 hours post transfection, the Luciferase substrate Coelenterazine (NanoLight Technologies, AZ) was added to cells, a baseline BRET measurement was taken after 5 minutes incubation, and then serial dilutions of peptides, diluted in PBS (with 0.5 mM MgCl2+0.1% BSA FAF), were added to cells, and BRET signal was measured every 2 minutes for 30 minutes on Hybrid Multi-Mode Reader (Synergy Neo2, BioTek, VT). Seventy-five peptides were tested in the β-arrestin recruitment assay.

PTHR1 [3] = molecular target: T1, PTHR1; experiment: β-arrestin2 recruitment BRET assay in transfected HEK293T cells; design: Flag (N); Life Technologies Corporation, CA (arrestin cDNA); host or cells: HEK293T (CRL-3216, ATCC); settings: for −log10Slope / EC50: β-arrestin2 recruitment; for −log10Slope: fitted curve slope; for EC50: read-out: −log10EC50 (converted); for β-arrestin2 assay activity compared to control peptide: FIG. 2, PTH 1-34 positive control; for β2-arrestin: relative to PTH [1-34], HEK293T cells, BRET
Method: as §1

[4] = cAMP accumulation, fitted curve slope, replicate plates
[5] = cAMP accumulation, replicate plates
[6] = replicate plates, listed as R1-81
[7] = cAMP assay, fitted dose-response curve
[8] = cAMP assay, fitted dose-response slope

| Sequence | cAMP accumulation activity compared to control peptide (PTHR1 [1]) | −log10Slope (PTHR1 [1]; [4]) | EC50 (PTHR1 [1]; [5]) | cAMP (PTHR1 [1]) | −log10Slope (PTHR1 [2]; replicate plates) | EC50 (PTHR1 [2]; replicate plates) | −log10Slope (PTHR1 [3]; replicate plates) | EC50 (PTHR1 [3]; replicate plates) | β1-arrestin (PTHR1 [2]) | −log10Slope (PTHR1 [2]; [6]) | β-arrestin2 assay activity compared to control peptide (PTHR1 [3]) | β2-arrestin (PTHR1 [3]) | −log10Slope (PTHR1 [3]; [6]) | Emax (PTHR1 [1]) | EC50 (PTHR1 [1]; [7]) | −log10Slope (PTHR1 [1]; [8]) | pEC50 (PTHR1 [1]) | pEC50 (PTHR1 [2]; −log10EC50, β-arrestin1 recruitment, replicate plates) | pEC50 (PTHR1 [3]; −log10EC50, β-arrestin2 recruitment, replicate plates) | β-arrestin1 recruitment compared to PTH 1-34 (PTHR1 [2]; FIG. 1, PTH 1-34 positive control) |
| --- | --- | --- | --- | --- | --- | --- | --- | --- | --- | --- | --- | --- | --- | --- | --- | --- | --- | --- | --- | --- |
| AVAEIQLMHQRAKWGLEIELLKLLLSLLKEYI [Peptide R2-45] | increased activity as compared to the control peptide | 4.438 | 0.00841 nM | ++ | −4.328 and −4.739 and −2.6191 | 483 nM and 470 nM and 542 nM | −2.787 and −1.761 and −3.574 | 255 nM and 1750 nM and 337 nM |  |  |  |  |  |  |  |  |  |  |  |  |
| AVAEIQLMHQRAKWGLELELKEKLRKILEDVY [Peptide R2-26] |  | −14.6415 | 84.5 nM |  | −2.291 and −7.462 | 27.1 nM and 12.9 nM | −2.019 and −6.257 | 16.1 nM and 12.5 nM |  |  |  |  |  |  |  |  |  |  |  |  |
| AVAEIQLMHQRAKWGVELQLKVDLRRILEDVY [Peptide R2-35] | activity similar to the control peptide | −9.142 | 9.84 nM | + | −0.6156 and −2.473 and −2.432 |  | −3.628 and −0.891 and −4.077 |  |  |  |  |  |  |  |  |  |  |  |  |  |
| AVAEIQLMHQRAKWIQDARRRAFLHKLIAEIH [LA-PM-FL, reference compound] |  | −5.23 | 13.1 nM |  |  | 1.75 nM and 2.65 nM and 3.53 nM |  | 3.64 nM and 3.04 nM and 3.08 nM | + | −3.271 and −2.571 and −2.99 | increased activity as compared to control | ++ | −3.14 and −3.448 and −2.307 |  |  |  |  |  |  |  |
| AVAEIQLMHQRAKWKILEELLKILIDLLKQYI [Peptide R2-48] |  |  |  |  | −3.1505 and −0.7628 | 1890 nM | −8.231 and −1.939 | 0.0212 nM |  |  | increased activity as compared to control | ++ |  | 98.8% | 64 nM | −14.2687 |  |  |  |  |
| AVAEIQLMHQRAKWKLDLELAVSLRKILEDVY [Peptide R2-27] | activity similar to the control peptide | −4.343 | 12.2 nM | + | −7.323 and −7.877 | 12 nM and 9.45 nM | −1.829 and −3.204 | 22.6 nM and 8.32 nM |  |  |  |  |  |  |  |  |  |  |  |  |
| AVAEIQLMHQRAKWKLELELKAFLDQILKDVL [Peptide R2-36] | activity similar to the control peptide | −1.696 | 4.76 nM | + | −5.884 and −3.429 and −1.931 | 1.47 nM and 4.7 nM and 2.91 nM | −4.1664 and −3.85 and −3.8162 | 2.5 nM and 1.98 nM and 5.39 nM | + |  | increased activity as compared to control | ++ |  |  |  |  |  |  |  |  |
| AVAEIQLMHQRAKWKLELELKEKIRKLLEDLL [Peptide R2-29] |  | −16.1973 |  |  | −5.782 and −7.833 |  | −2.874 and −3.055 |  | + |  | increased activity as compared to control | ++ |  |  |  |  | 7.22 | 8.15 and 8.77 | 8.39 and 8.46 |  |
| AVAEIQLMHQRAKWKLELELKVKLLEILKDVY [Peptide R2-25] | activity similar to the control peptide | −10.1961 | 12.9 nM | + | −3.965 and −2.819 | 2.59 nM and 5.42 nM | −3.2515 and −2.752 | 4.3 nM and 1.73 nM |  |  | increased activity as compared to control | ++ |  |  |  |  |  |  |  |  |
| AVAEIQLMHQRAKWLEELKLKDDLRKILEDVY [Peptide R2-30] |  | −18.1852 | 80 nM |  | −4.267 and −2.2289 | 13.3 nM and 5.21 nM | −2.543 and −1.4524 | 12.1 nM and 5.02 nM |  |  | activity similar to the control peptide | + |  |  |  |  |  |  |  |  |
| AVAEIQLMHQRAKWLNELRLKEEMRKILEDVY [Peptide R2-33] |  | −17.9495 | 80.1 nM |  | −2.007 and −4.048 and −4.079 | 5.83 nM and 10.3 nM and 3.98 nM | −5.331 and −2.162 and −8.426 | 7.61 nM and 4.94 nM and 8.19 nM |  |  | activity similar to the control peptide | + |  |  |  |  |  |  |  |  |
| AVAEIQLMHQRAKWRLEIELLKKLKEILKDVY [Peptide R2-34] |  | −11.9049 | 106 nM |  | −3.251 and −3.221 and −4.25 | 2.75 nM and 6.54 nM and 3.31 nM | −3.972 and −3.591 and −3.249 | 4.54 nM and 3.85 nM and 8.05 nM |  |  | activity similar to the control peptide | + |  |  |  |  |  |  |  |  |
| AVAEIQLMHQRAKWSLREELEKLLKELLKEYI [Peptide R2-44] | increased activity as compared to the control peptide | 0.4711 | 0.0365 nM | ++ | −3.276 and −2.346 and −3.027 | 2.88 nM and 15 nM and 2.81 nM | −0.789 and −3.6425 and −9.383 |  |  |  |  |  |  |  |  |  |  |  |  |  |
| GIAVITLMDLRAYLRAEYELREMLLRLLEEIF [Peptide R2-13] |  | −3.312 | 4870 nM |  | −3.163 | 1.61 nM | −3.619 |  | + |  |  |  |  |  |  |  |  |  |  |  |
| GIAVITLMLLRAYLELLEELVKILHELLRRYH [Peptide R2-52] |  |  |  |  | 2.312 | 0.149 nM | −0.9875 |  | ++ |  |  |  |  | 97.4% | 2570 nM | −3.437 |  |  |  | higher levels of recruitment of β-arrestin 1 |
